Measurements as given in patent US5043450A, “8-alkoxyquinolonecarboxylic acid and salts thereof” (priority 1986, dated 1991).
Values after ≈ are worked out from the molar mass of the structure shown.

Key:
Assay type in all cases: cell-based
[1] = test system: Serratia marcescens IID 618; test: Antibacterial spectra, MIC; details: IID618, 10^6 cells/ml, Gram -, read-out: MIC
P. aeruginosa IID 1210 = test: Antibacterial spectra, MIC; details: Pseudomonas aeruginosa, IID1210; 10^6 cells/ml; Gram -; read-out: MIC
Pst. micros UPI 5464-1 = test: Antibacterial spectra, MIC; details: Parvimonas micra, UPI54641; 10^6 cells/ml; Gram +; read-out: MIC
E. coli ATCC 10536 = test: Antibacterial spectra, MIC; details: Escherichia coli, ATCC10536
[2] = test system: Salmonella enteritidis IID 604; test: Antibacterial spectra, MIC; details: Salmonella enterica; 10^6 cells/ml; Gram -; read-out: MIC
[3] = test system: Veillonella parvula KYA 10790; test: Antibacterial spectra, MIC; details: KYA10790, 10^6 cells/ml, Gram -, read-out: MIC
C. perfringens KYA 13123 = test: microbe, parasite or virus in culture; details: Clostridium perfringens, KYA13123
[4] = test system: Acinetobacter anitratus IID 876; test: Antibacterial spectra, MIC; details: Acinetobacter calcoaceticus, IID876; 10^6 cells/ml; Gram -; read-out: MIC
[5] = test system: Propionibacterium acens 11828; test: Antibacterial spectra, MIC; details: 10^6 cells/ml, Gram +, read-out: MIC
[6] = test system: B. thetaiotaomicron (0661); test: Antibacterial spectra, MIC; details: Bacteroides thetaiotaomicron; 10^6 cells/ml; Gram -; read-out: MIC
F. necrophorum S-45 = test: Antibacterial spectra, MIC; details: Fusobacterium necrophorum, S45; 10^6 cells/ml; Gram -; read-out: MIC
K. pneumoniae 1-220S = test: Antibacterial spectra, MIC; details: Klebsiella pneumoniae, 1220S; 10^6 cells/ml; Gram -; read-out: MIC
E. coli ML 4707 = test: Antibacterial spectra, MIC; details: Escherichia coli, ML4707; 10^6 cells/ml; Gram -
Protocol: (§1) The antibacterial test was carried out according to the method designated by Japan Society of Chemotherapy.

Shigella sonnei IID 969 = test: Antibacterial spectra, MIC; details: IID969, 10^6 cells/ml, Gram -
Protocol: as §1

E. faecalis IID 682 = test: Antibacterial spectra, MIC; details: Enterococcus faecalis, IID682; 10^6 cells/ml; Gram +
Protocol: as §1

[7] = test system: Streptococcus pyogenes (S-8); test: Antibacterial spectra, MIC; details: 10^6 cells/ml, Gram +
Protocol: as §1

[8] = test system: Proteus vulgaris IFO 3167; test: Antibacterial spectra, MIC; details: IFO3167, 10^6 cells/ml, Gram -
Protocol: as §1

S. aureus Smith = test: Antibacterial spectra, MIC; details: Staphylococcus aureus; 10^6 cells/ml; Gram +; read-out: MIC
[9] = test system: Citrobacter freundii IID 976; test: Antibacterial spectra, MIC; details: IID976, 10^6 cells/ml, Gram -, read-out: MIC
B. fragilis 25285 = test: Antibacterial spectra, MIC; details: Bacteroides fragilis, 10^6 cells/ml, Gram -, read-out: MIC
[10] = test system: Escherichia coli NIHJ JC-2; test: Antibacterial spectra, MIC; details: NIHJJC2
[11] = test system: Yersinia enterocolitica IID 981; test: Antibacterial spectra, MIC; details: IID981, 10^6 cells/ml, Gram -, read-out: MIC
[12] = test system: Bacteroides fragilis GM 7000; test: Antibacterial spectra, MIC; details: GM7000, 10^6 cells/ml, Gram -, read-out: MIC
B. fragilis 0558 = test: Antibacterial spectra, MIC; details: Bacteroides fragilis, 10^6 cells/ml, Gram -, read-out: MIC
S. epidermidis IID 866 = test: Antibacterial spectra, MIC; details: Staphylococcus epidermidis, IID866; 10^6 cells/ml; Gram +; read-out: MIC
B. distasonis 8503 = test: Antibacterial spectra, MIC; details: Parabacteroides distasonis, 10^6 cells/ml, Gram -, read-out: MIC
[13] = test system: Alcaligenes faecalis 0114002; test: Antibacterial spectra, MIC; details: 10^6 cells/ml, Gram -, read-out: MIC
[14] = test system: Eubacterium lentum GAI 5242; test: Antibacterial spectra, MIC; details: Eggerthella lenta, GAI5242
B. vulgatus KYA 29327 = test: Antibacterial spectra, MIC; details: Phocaeicola vulgatus, KYA29327; 10^6 cells/ml; Gram -; read-out: MIC
P. cepacia GIFU 518 = test: Antibacterial spectra, MIC; details: Burkholderia cepacia, GIFU518; 10^6 cells/ml; Gram -; read-out: MIC
[15] = test system: Staphylococcus aureus 209 P; test: Antibacterial spectra, MIC; details: 10^6 cells/ml, Gram +, read-out: MIC
[16] = test system: Fusobacterium mortiferum 4249; test: Antibacterial spectra, MIC; details: 10^6 cells/ml, Gram -, read-out: MIC
[17] = test system: Enterobacter cloacae IID 977; test: Antibacterial spectra, MIC; details: IID977, 10^6 cells/ml, Gram -, read-out: MIC
[18] = test system: Morganella morganii IID 602; test: Antibacterial spectra, MIC; details: IID602, 10^6 cells/ml, Gram -, read-out: MIC
F. varium KYA 8501 = test: Antibacterial spectra, MIC; details: Fusobacterium varium, KYA8501; 10^6 cells/ml; Gram -; read-out: MIC
[19] = test system: S. aureus IID 670 (Terajima); test: Antibacterial spectra, MIC; details: Staphylococcus aureus, IID670; 10^6 cells/ml; Gram +; read-out: MIC

CCOc1c(N2CCNCC2)c(F)cc2c(=O)c(C(=O)O)cn(C3CC3)c12 [Exp. 18, 1-cyclopropyl-6-fluoro-1,4-dihydro-8-ethoxy-4-oxo-7-(1-piperazinyl)-3-quinolinecarboxylic acid]
MIC [1]: 0.2 µg/mL (≈ 0.533 µM)
MIC (P. aeruginosa IID 1210): 6.25 µg/mL (≈ 16.6 µM)
MIC (Pst. micros UPI 5464-1): 0.78 µg/mL (≈ 2.08 µM)
MIC (E. coli ATCC 10536): ≤ 0.05 µg/mL
MIC [2]: 0.1 µg/mL (≈ 0.266 µM)
MIC [3]: 0.78 µg/mL (≈ 2.08 µM)
MIC (C. perfringens KYA 13123): 1.56 µg/mL (≈ 4.16 µM)
MIC [4]: 0.1 µg/mL (≈ 0.266 µM)
MIC [5]: 12.5 µg/mL (≈ 33.3 µM)
MIC [6]: 12.5 µg/mL (≈ 33.3 µM)
MIC (F. necrophorum S-45): 3.13 µg/mL (≈ 8.34 µM)
MIC (K. pneumoniae 1-220S): 0.2 µg/mL (≈ 0.533 µM)
MIC (E. coli ML 4707): ≤ 0.05 µg/mL
MIC (Shigella sonnei IID 969): ≤ 0.05 µg/mL
MIC (E. faecalis IID 682): 1.56 µg/mL
MIC [7]: 1.56 µg/mL
MIC [8]: ≤ 0.05 µg/mL
MIC (S. aureus Smith): 0.39 µg/mL (≈ 1.04 µM)
MIC [9]: 0.1 µg/mL (≈ 0.266 µM)
MIC (B. fragilis 25285): 3.13 µg/mL (≈ 8.34 µM)
MIC [10]: ≤ 0.05 µg/mL
MIC [11]: 0.2 µg/mL (≈ 0.533 µM)
MIC [12]: 3.13 µg/mL (≈ 8.34 µM)
MIC (B. fragilis 0558): 12.5 µg/mL (≈ 33.3 µM)
MIC (S. epidermidis IID 866): 0.39 µg/mL (≈ 1.04 µM)
MIC (B. distasonis 8503): 12.5 µg/mL (≈ 33.3 µM)
MIC [13]: 0.78 µg/mL (≈ 2.08 µM)
MIC [14]: 1.56 µg/mL (≈ 4.16 µM)
MIC (B. vulgatus KYA 29327): 12.5 µg/mL (≈ 33.3 µM)
MIC (P. cepacia GIFU 518): 3.13 µg/mL (≈ 8.34 µM)
MIC [15]: 0.2 µg/mL (≈ 0.533 µM)
MIC [16]: 3.13 µg/mL (≈ 8.34 µM)
MIC [17]: 0.2 µg/mL (≈ 0.533 µM)
MIC [18]: 0.39 µg/mL (≈ 1.04 µM)
MIC (F. varium KYA 8501): 25 µg/mL (≈ 66.6 µM)
MIC [19]: 0.39 µg/mL (≈ 1.04 µM)
